From patent US20260374756A1, “HETEROCYCLIC COMPOUNDS AS INHIBITORS OF MONOACYLGLYCEROL LIPASE (MAGL)” (Hoffmann-La Roche Inc., priority 2022, published 2026)

What follows are compounds tested against T1, hMAGL (Homo sapiens, UniProt Q99685) (assay: 2-AG assay: MAGL inhibition, hydrolysis of 2-arachidonoylglycerol to arachidonic acid followed by mass spectrometry).
T1 sequence (Q99685 1-303): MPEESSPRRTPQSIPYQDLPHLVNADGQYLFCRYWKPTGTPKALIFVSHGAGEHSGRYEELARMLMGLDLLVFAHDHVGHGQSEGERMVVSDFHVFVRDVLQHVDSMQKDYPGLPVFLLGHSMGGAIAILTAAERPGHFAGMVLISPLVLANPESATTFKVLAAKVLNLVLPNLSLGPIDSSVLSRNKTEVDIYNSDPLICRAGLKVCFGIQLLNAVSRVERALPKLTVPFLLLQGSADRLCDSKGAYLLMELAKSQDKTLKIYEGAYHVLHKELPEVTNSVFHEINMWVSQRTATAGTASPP
Type: biochemical
Outline: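 Read-out is LC-MS/MS of arachidonic acid released from 2-arachidonoylglycerol (8 μM final), normalised to d8-arachidonic acid internal standard after acetonitrile quench. Enzyme […] and compound were pre-mixed 15 min, then reacted 30 min, both at RT, in Tris/EDTA buffer with 0.01% Tween-20 and 2.5% DMSO.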

Row | Structure (SMILES) | IC50 [nM]
1 | O=C(N1CC2(CC(n3cnc(C4CC4)n3)C2)C1)N1CC2(CN(Cc3cn(CC(F)(F)F)nn3)C2)C1 [Example 108, [6-(3-cyclopropyl-1,2,4-triazol-1-yl)-2-azaspiro[3.3]heptan-2-yl]-[6-[[1-(2,2,2-trifluoroethyl)triazol-4-yl]methyl]-2,6-diazaspiro[3.3]heptan-2-yl]methanone] | 735
2 | O=C(N1CC2(CC(n3cnc(C(F)(F)F)n3)C2)C1)N1CC2(CN(Cc3cnn(CC(F)(F)F)c3)C2)C1 [Example 109, [6-[[1-(2,2,2-trifluoroethyl)pyrazol-4-yl]methyl]-2,6-diazaspiro[3.3]heptan-2-yl]-[6-[3-(trifluoromethyl)-1,2,4-triazol-1-yl]-2-azaspiro[3.3]heptan-2-yl]methanone] | 1380
3 | O=C(N1CC2(CC(n3cnc(C4CC4)n3)C2)C1)N1CC2(CN(Cc3cnn(CC(F)(F)F)c3)C2)C1 [Example 110, [6-(3-cyclopropyl-1,2,4-triazol-1-yl)-2-azaspiro[3.3]heptan-2-yl]-[6-[[1-(2,2,2-trifluoroethyl)pyrazol-4-yl]methyl]-2,6-diazaspiro[3.3]heptan-2-yl]methanone] | 328
4 | Cc1nn(CC(F)(F)F)cc1CN1CC2(C1)CN(C(=O)N1CC3(CC(n4cnc(C5(O)CC5)n4)C3)C1)C2 [Example 111, [6-[3-(1-hydroxycyclopropyl)-1,2,4-triazol-1-yl]-2-azaspiro[3.3]heptan-2-yl]-[6-[[3-methyl-1-(2,2,2-trifluoroethyl)pyrazol-4-yl]methyl]-2,6-diazaspiro[3.3]heptan-2-yl]methanone] | 3900
5 | Cc1nn(CC(F)(F)F)cc1CN1CC2(C1)CN(C(=O)N1CC3(CC(n4cnc(C(F)(F)F)n4)C3)C1)C2 [Example 112, [6-[[3-methyl-1-(2,2,2-trifluoroethyl)pyrazol-4-yl]methyl]-2,6-diazaspiro[3.3]heptan-2-yl]-[6-[3-(trifluoromethyl)-1,2,4-triazol-1-yl]-2-azaspiro[3.3]heptan-2-yl]methanone] | 640
6 | Cc1nn(CC(F)(F)F)cc1CN1CC2(C1)CN(C(=O)N1CC3(CC(n4cnc(C5CC5)n4)C3)C1)C2 [Example 113, [6-(3-cyclopropyl-1,2,4-triazol-1-yl)-2-azaspiro[3.3]heptan-2-yl]-[6-[[3-methyl-1-(2,2,2-trifluoroethyl)pyrazol-4-yl]methyl]-2,6-diazaspiro[3.3]heptan-2-yl]methanone] | 133
7 | Cc1c(CN2CC3(C2)CN(C(=O)N2CC4(CC(n5cnc(C(F)(F)F)n5)C4)C2)C3)cnn1CC(F)(F)F [Example 114, [6-[[5-methyl-1-(2,2,2-trifluoroethyl)pyrazol-4-yl]methyl]-2,6-diazaspiro[3.3]heptan-2-yl]-[6-[3-(trifluoromethyl)-1,2,4-triazol-1-yl]-2-azaspiro[3.3]heptan-2-yl]methanone] | 311
8 | Cc1c(CN2CC3(C2)CN(C(=O)N2CC4(CC(n5cnc(C6CC6)n5)C4)C2)C3)cnn1CC(F)(F)F [Example 115, [6-(3-cyclopropyl-1,2,4-triazol-1-yl)-2-azaspiro[3.3]heptan-2-yl]-[6-[[5-methyl-1-(2,2,2-trifluoroethyl)pyrazol-4-yl]methyl]-2,6-diazaspiro[3.3]heptan-2-yl]methanone] | 38.2
9 | O=C(N1CC2(CC(n3cnc(C(F)(F)F)n3)C2)C1)N1CC2(CN(Cc3ccn(C(F)(F)F)n3)C2)C1 [Example 116, [6-[[1-(trifluoromethyl)pyrazol-3-yl]methyl]-2,6-diazaspiro[3.3]heptan-2-yl]-[6-[3-(trifluoromethyl)-1,2,4-triazol-1-yl]-2-azaspiro[3.3]heptan-2-yl]methanone] | 161
10 | O=C(N1CC2(CC(n3cnc(C4CC4)n3)C2)C1)N1CC2(CN(Cc3ccn(C(F)(F)F)n3)C2)C1 [Example 117, [6-(3-cyclopropyl-1,2,4-triazol-1-yl)-2-azaspiro[3.3]heptan-2-yl]-[6-[[1-(trifluoromethyl)pyrazol-3-yl]methyl]-2,6-diazaspiro[3.3]heptan-2-yl]methanone] | 16
11 | O=C(N1CC2(CC(Cc3cn[nH]c3C(F)(F)F)C2)C1)N1CC2(CC(n3cnc(C(F)(F)F)n3)C2)C1 [Example 119, [6-[[5-(trifluoromethyl)-1H-pyrazol-4-yl]methyl]-2-azaspiro[3.3]heptan-2-yl]-[6-[3-(trifluoromethyl)-1,2,4-triazol-1-yl]-2-azaspiro[3.3]heptan-2-yl]methanone] | 0.12
12 | O=C(N1CC2(CC(Cc3cn(CC(F)(F)F)nc3C(F)(F)F)C2)C1)N1CC2(CC(n3cnc(C4(O)CC4)n3)C2)C1 [Example 120, [6-[3-(1-hydroxycyclopropyl)-1,2,4-triazol-1-yl]-2-azaspiro[3.3]heptan-2-yl]-[6-[[1-(2,2,2-trifluoroethyl)-3-(trifluoromethyl)pyrazol-4-yl]methyl]-2-azaspiro[3.3]heptan-2-yl]methanone] | 0.81
13 | O=C(N1CC2(CC(Cc3cn(CC(F)(F)F)nc3C(F)(F)F)C2)C1)N1CC2(CC(n3cnc(C(F)(F)F)n3)C2)C1 [Example 121, [6-[[1-(2,2,2-trifluoroethyl)-3-(trifluoromethyl)pyrazol-4-yl]methyl]-2-azaspiro[3.3]heptan-2-yl]-[6-[3-(trifluoromethyl)-1,2,4-triazol-1-yl]-2-azaspiro[3.3]heptan-2-yl]methanone] | 0.35
14 | O=C(N1CC2(CC(Cc3cn(CC(F)(F)F)nc3C(F)(F)F)C2)C1)N1CC2(CC(n3cnc(C4CC4)n3)C2)C1 [Example 122] | 0.08
15 | O=C(N1CC2(CC(Cc3cc(C4CC4)n[nH]3)C2)C1)N1CC2(CC(n3cnc(C(F)(F)F)n3)C2)C1 [Example 123, [6-[(3-cyclopropyl-1H-pyrazol-5-yl)methyl]-2-azaspiro[3.3]heptan-2-yl]-[6-[3-(trifluoromethyl)-1,2,4-triazol-1-yl]-2-azaspiro[3.3]heptan-2-yl]methanone] | 0.34
16 | O=C(N1CC2(CC(Cc3cc(C4CC4)n[nH]3)C2)C1)N1CC2(CC(n3cnc(C4(O)CC4)n3)C2)C1 [Example 125, [6-[(3-cyclopropyl-1H-pyrazol-5-yl)methyl]-2-azaspiro[3.3]heptan-2-yl]-[6-[3-(1-hydroxycyclopropyl)-1,2,4-triazol-1-yl]-2-azaspiro[3.3]heptan-2-yl]methanone] | 2.25
17 | O=C(N1CC2(CC(Cn3cnc(C(F)(F)F)n3)C2)C1)N1CC2(CC(c3cc(C4CC4)n[nH]3)C2)C1 [Example 126, [6-(3-cyclopropyl-1H-pyrazol-5-yl)-2-azaspiro[3.3]heptan-2-yl]-[6-[[3-(trifluoromethyl)-1,2,4-triazol-1-yl]methyl]-2-azaspiro[3.3]heptan-2-yl]methanone] | 0.78
18 | O=C(N1CC2(CC(Cn3cnc(C(F)(F)F)n3)C2)C1)N1CC2(CC(n3cnc(C4CC4)n3)C2)C1 [Example 127, [6-(3-cyclopropyl-1,2,4-triazol-1-yl)-2-azaspiro[3.3]heptan-2-yl]-[6-[[3-(trifluoromethyl)-1,2,4-triazol-1-yl]methyl]-2-azaspiro[3.3]heptan-2-yl]methanone] | 1.06
19 | O=C(N1CC2(CC(Cn3cnc(C(F)(F)F)n3)C2)C1)N1CC2(CC(n3cnc(C4(O)CC4)n3)C2)C1 [Example 128, [6-[3-(1-hydroxycyclopropyl)-1,2,4-triazol-1-yl]-2-azaspiro[3.3]heptan-2-yl]-[6-[[3-(trifluoromethyl)-1,2,4-triazol-1-yl]methyl]-2-azaspiro[3.3]heptan-2-yl]methanone] | 9.98
20 | O=C(N1CC2(CC(Cc3n[nH]cc3C(F)(F)F)C2)C1)N1CC2(CC(n3cnc(C(F)(F)F)n3)C2)C1 [Example 129, [6-[[4-(trifluoromethyl)-1H-pyrazol-3-yl]methyl]-2-azaspiro[3.3]heptan-2-yl]-[6-[3-(trifluoromethyl)-1,2,4-triazol-1-yl]-2-azaspiro[3.3]heptan-2-yl]methanone] | 0.31
21 | Cc1cc(C2CC2)n(CC2CC3(C2)CN(C(=O)N2CC4(CC(n5cnc(C(F)(F)F)n5)C4)C2)C3)n1 [Example 131, [6-[(5-cyclopropyl-3-methyl-pyrazol-1-yl)methyl]-2-azaspiro[3.3]heptan-2-yl]-[6-[3-(trifluoromethyl)-1,2,4-triazol-1-yl]-2-azaspiro[3.3]heptan-2-yl]methanone] | 1.08
22 | Cc1cc(C2CC2)n(CC2CC3(C2)CN(C(=O)N2CC4(CC(n5cnc(C6CC6)n5)C4)C2)C3)n1 [Example 132, [6-[(5-cyclopropyl-3-methyl-pyrazol-1-yl)methyl]-2-azaspiro[3.3]heptan-2-yl]-[6-(3-cyclopropyl-1,2,4-triazol-1-yl)-2-azaspiro[3.3]heptan-2-yl]methanone] | 0.29
23 | Cc1cc(C2CC2)n(CC2CC3(C2)CN(C(=O)N2CC4(CC(n5cnc(C6(O)CC6)n5)C4)C2)C3)n1 [Example 133, [6-[(5-cyclopropyl-3-methyl-pyrazol-1-yl)methyl]-2-azaspiro[3.3]heptan-2-yl]-[6-[3-(1-hydroxycyclopropyl)-1,2,4-triazol-1-yl]-2-azaspiro[3.3]heptan-2-yl]methanone] | 4.54
24 | Cc1cc(C2CC2)nn1CC1CC2(C1)CN(C(=O)N1CC3(CC(n4cnc(C(F)(F)F)n4)C3)C1)C2 [Example 134, [6-[(3-cyclopropyl-5-methyl-pyrazol-1-yl)methyl]-2-azaspiro[3.3]heptan-2-yl]-[6-[3-(trifluoromethyl)-1,2,4-triazol-1-yl]-2-azaspiro[3.3]heptan-2-yl]methanone] | 1.07
